The molecules below were run against WIL-FL (Homo sapiens, UniProt P01721) (assay: Unlabeled LC Protease Sensitivity Assay (proteinase K)). Conditions: small molecule 10 μM, WIL-FL 5 μM, proteinase K 50 nM, 2 hours at 37° C.
Type: biochemical
Description: Unlabeled LC Protease Sensitivity Assay. WIL-FL (5 μM) in phosphate-buffered saline (PBS, pH 7.4)+0.02% Pluronic F-127 was incubated with proteinase K (50 nM) with small molecule (10 μM) in 1% DMSO vehicle, or vehicle alone. After 2 hours at 37° C., reactions were quenched with 2 mM phenylmethyl sulfonyl fluoride in methanol and centrifuged at 14,000 rpm for 2 minutes. Remaining WIL-FL was quantified by injecting 10 μL of the supernatant into a Waters Acquity H-Class Bio-UPLC (ultra performance liquid chromatography) instrument equipped with a BEH200 analytical size-exclusion column (1.7 μm, 4.6×150 mm) under isocratic conditions (0.2 mL/min, PBS+1 mM EDTA, 2400 psi backpressure, 15 min), monitoring absorbance at 280 nm. Activity of each compound is given as fold protection from protease=(A_compound−A_vehicle)/(A_no_protease−A_vehicle), where each “A” corresponds to peak integration of the respective treatment.

Row | SMILES | Protection (fold protection of LC from protease)
1 | CCN(CC)c1ccc2c(C)c(CCOC(=O)NCc3cnccn3)c(=O)oc2c1 [Compound 91, 2-(7-(diethylamino)-4-methyl-2-oxo-2H-chromen-3-yl)ethyl (pyrazin-2-ylmethyl)carbamate] | B (3 ≤ B < 0.6)
2 | CCN(CC)c1ccc2c(C)c(CCOC(=O)NCc3ccn[nH]3)c(=O)oc2c1 [Compound 92, 2-(7-(diethylamino)-4-methyl-2-oxo-2H-chromen-3-yl)ethyl ((1H-pyrazol-5-yl)methyl)carbamate] | B (3 ≤ B < 0.6)
3 | CCN(CC)c1ccc2c(C)c(CCOC(=O)NCc3ncccn3)c(=O)oc2c1 [Compound 93, 2-(7-(diethylamino)-4-methyl-2-oxo-2H-chromen-3-yl)ethyl (pyrimidin-2-ylmethyl)carbamate] | B (3 ≤ B < 0.6)
4 | CCN(CC)c1ccc2c(C)c(CCNC(C)=O)c(=O)oc2c1 [Compound 94, N-(2-(7-(diethylamino)-4-methyl-2-oxo-2H-chromen-3-yl)ethyl)acetamide] | A (A < 0.3))
5 | CCN(CC)c1ccc2c(C)c(CCNC(=O)CCc3ccncc3)c(=O)oc2c1 [Compound 96, N-(2-(7-(diethylamino)-4-methyl-2-oxo-2H-chromen-3-yl)ethyl)-3-(pyridin-4-yl)propanamide] | A (A < 0.3))
6 | CCN(CC)c1ccc2c(C)c(CCOC(=O)NCc3ccc(Cl)nc3)c(=O)oc2c1 [Compound 97, 2-(7-(diethylamino)-4-methyl-2-oxo-2H-chromen-3-yl)ethyl ((6-chloropyridin-3-yl)methyl)carbamate] | A (A < 0.3))
7 | CCN(CC)c1ccc2c(C)c(CCNC(=O)NCc3cccnc3)c(=O)oc2c1 [Compound 98, 1-(2-(7-(diethylamino)-4-methyl-2-oxo-2H-chromen-3-yl)ethyl)-3-(pyridin-3-ylmethyl)urea] | C (C ≥ 0.6)
8 | CCN(CC)c1ccc2c(C)c(CCNC(=O)NCCc3cccnc3)c(=O)oc2c1 [Compound 99, 1-(2-(7-(diethylamino)-4-methyl-2-oxo-2H-chromen-3-yl)ethyl)-3-(2-(pyridin-3-yl)ethyl)urea] | B (3 ≤ B < 0.6)
9 | CCN(CC)c1ccc2c(C)c(CCNC(=O)OCc3cccnc3)c(=O)oc2c1 [Compound 100, Pyridin-3-ylmethyl (2-(7-(diethylamino)-4-methyl-2-oxo-2H-chromen-3-yl)ethyl)carbamate] | A (A < 0.3))
10 | CCN(CC)c1ccc2c(C)c(CCOC(=O)NCc3ccc(C(F)(F)F)nc3)c(=O)oc2c1 [Compound 101, 2-(7-(diethylamino)-4-methyl-2-oxo-2H-chromen-3-yl)ethyl ((6-(trifluoromethyl)pyridin-3-yl)methyl)carbamate] | A (A < 0.3))
11 | CCN(CC)c1ccc2c(C)c(CCOC(=O)N(C)CCc3cccnc3)c(=O)oc2c1 [Compound 102, 2-(7-(diethylamino)-4-methyl-2-oxo-2H-chromen-3-yl)ethyl methyl(2-(pyridin-3-yl)ethyl)carbamate] | A (A < 0.3))
12 | CCN(CC)c1ccc2c(C)c(CCOC(=O)Nc3ccc(NC(C)=O)cn3)c(=O)oc2c1 [Compound 103, 2-(7-(diethylamino)-4-methyl-2-oxo-2H-chromen-3-yl)ethyl (5-acetamidopyridin-2-yl)carbamate] | B (3 ≤ B < 0.6)
13 | CCN(CC)c1ccc2c(C)c(CCOC(=O)N3CC(C(=O)OC)C3)c(=O)oc2c1 [Compound 104, 1-(2-(7-(diethylamino)-4-methyl-2-oxo-2H-chromen-3-yl)ethyl) 3-methyl azetidine-1,3-dicarboxylate] | A (A < 0.3))

Next, values leading:

Row | Protection (fold protection of LC from protease) | SMILES
14 | B (3 ≤ B < 0.6) | CCOC(=O)N1CCC(NC(=O)OCCc2c(C)c3ccc(N(CC)CC)cc3oc2=O)CC1 [Compound 105, Ethyl 4-(((2-(7-(diethylamino)-4-methyl-2-oxo-2H-chromen-3-yl)ethoxy)carbonyl)amino)piperidine-1-carboxylate]
15 | A (A < 0.3)) | CCN(CC)c1ccc2c(C)c(CCOC(=O)N3CCC(CO)C3)c(=O)oc2c1 (stereo not shown) [Compound 106, 2-(7-(diethylamino)-4-methyl-2-oxo-2H-chromen-3-yl)ethyl 3-(hydroxymethyl)pyrrolidine-1-carboxylate]
16 | A (A < 0.3)) | CCN(CC)c1ccc2c(C)c(CCOC(=O)N3CCN(S(=O)(=O)C4CC4)CC3)c(=O)oc2c1 [Compound 107, 2-(7-(diethylamino)-4-methyl-2-oxo-2H-chromen-3-yl)ethyl 4-(cyclopropylsulfonyl)piperazine-1-carboxylate]
17 | A (A < 0.3)) | CCN(CC)c1ccc2c(C)c(CCOC(=O)N3CC(F)(F)C3)c(=O)oc2c1 [Compound 108, 2-(7-(diethylamino)-4-methyl-2-oxo-2H-chromen-3-yl)ethyl 3,3-difluoroazetidine-1-carboxylate]
18 | A (A < 0.3)) | CCN(CC)c1ccc2c(C)c(CCOC(=O)N3CCN(c4cnccn4)CC3)c(=O)oc2c1 [Compound 109, 2-(7-(diethylamino)-4-methyl-2-oxo-2H-chromen-3-yl)ethyl 4-(pyrazin-2-yl)piperazine-1-carboxylate]
19 | B (3 ≤ B < 0.6) | CCN(CC)c1ccc2c(C)c(CCOC(=O)N3CC4(C3)CS(=O)(=O)C4)c(=O)oc2c1 [Compound 110, 2-(7-(diethylamino)-4-methyl-2-oxo-2H-chromen-3-yl)ethyl 2-thia-6-azaspiro[3.3]heptane-6-carboxylate 2,2-dioxide]
20 | A (A < 0.3)) | CCN(CC)c1ccc2c(C)c(CCOC(=O)N3CCC(C)(O)C3)c(=O)oc2c1 (stereo not shown) [Compound 111, 2-(7-(diethylamino)-4-methyl-2-oxo-2H-chromen-3-yl)ethyl 3-hydroxy-3-methylpyrrolidine-1-carboxylate]
21 | A (A < 0.3)) | CCN(CC)c1ccc2c(C)c(CCOC(=O)N3CCS(=O)(=O)CC3)c(=O)oc2c1 [Compound 112, 2-(7-(diethylamino)-4-methyl-2-oxo-2H-chromen-3-yl)ethyl thiomorpholine-4-carboxylate 1,1-dioxide]
22 | A (A < 0.3)) | CCN(CC)c1ccc2c(C)c(CCOC(=O)N3CCN(c4cc(C)no4)CC3)c(=O)oc2c1 [Compound 113, 2-(7-(diethylamino)-4-methyl-2-oxo-2H-chromen-3-yl)ethyl 4-(3-methylisoxazol-5-yl)piperazine-1-carboxylate]
23 | A (A < 0.3)) | CCN(CC)c1ccc2c(C)c(CCOC(=O)N3CCN(c4ccccn4)CC3)c(=O)oc2c1 [Compound 114, 2-(7-(diethylamino)-4-methyl-2-oxo-2H-chromen-3-yl)ethyl 4-(pyridin-2-yl)piperazine-1-carboxylate]
24 | A (A < 0.3)) | CCN(CC)c1ccc2c(C)c(CCOC(=O)N3CCN(c4nn[nH]n4)CC3)c(=O)oc2c1 [Compound 115, 2-(7-(diethylamino)-4-methyl-2-oxo-2H-chromen-3-yl)ethyl 4-(2H-tetrazol-5-yl)piperazine-1-carboxylate]
25 | A (A < 0.3)) | CCN(CC)c1ccc2c(C)c(CCOC(=O)N3CCN(c4ncccn4)CC3)c(=O)oc2c1 [Compound 116, 2-(7-(diethylamino)-4-methyl-2-oxo-2H-chromen-3-yl)ethyl 4-(pyrimidin-2-yl)piperazine-1-carboxylate]
26 | C (C ≥ 0.6) | CCN(CC)c1ccc2c(C)c(CCOC(=O)NCc3cccc(NC(C)=O)c3)c(=O)oc2c1 [Compound 117, 2-(7-(diethylamino)-4-methyl-2-oxo-2H-chromen-3-yl)ethyl (3-acetamidobenzyl)carbamate]
27 | B (3 ≤ B < 0.6) | CCN(CC)c1ccc2c(C)c(CCOC(=O)N3CCC(Cc4cccnc4)CC3)c(=O)oc2c1 [Compound 118, 2-(7-(diethylamino)-4-methyl-2-oxo-2H-chromen-3-yl)ethyl 4-(pyridin-3-ylmethyl)piperidine-1-carboxylate]
28 | B (3 ≤ B < 0.6) | CCN(CC)c1ccc2c(C)c(CCOC(=O)NCc3ccc(C(=O)O)cc3)c(=O)oc2c1 [Compound 119, 4-((((2-(7-(diethylamino)-4-methyl-2-oxo-2H-chromen-3-yl)ethoxy)carbonyl)amino)methyl)benzoic acid]
29 | B (3 ≤ B < 0.6) | CCN(CC)c1ccc2c(C)c(CCOC(=O)NCc3cccc(C(=O)O)c3)c(=O)oc2c1 [Compound 123, 3-((((2-(7-(diethylamino)-4-methyl-2-oxo-2H-chromen-3-yl)ethoxy)carbonyl)amino)methyl)benzoic acid]
30 | B (3 ≤ B < 0.6) | CCN(CC)c1ccc2c(C)c(CCOC(=O)NCc3ccc(NC(C)=O)cn3)c(=O)oc2c1 [Compound 127, 2-(7-(diethylamino)-4-methyl-2-oxo-2H-chromen-3-yl)ethyl ((5-acetamidopyridin-2-yl)methyl)carbamate]
31 | B (3 ≤ B < 0.6) | CCN(CC)c1ccc2c(C)c(CCOC(=O)NCc3cncc(NC(C)=O)c3)c(=O)oc2c1 [Compound 128, 2-(7-(diethylamino)-4-methyl-2-oxo-2H-chromen-3-yl)ethyl ((5-acetamidopyridin-3-yl)methyl)carbamate]

From US11945806B2, “Stabilization of amyloidogenic immunoglobulin light chains” (The Scripps Research Institute, priority 2019, dated 2024)
